From PubChem BioAssay AID1845195 (Molecular Pharmacology Branch, DTP, NCI, 2023)

Tested on: 156681-154-R-J1 tumor spheroid viability
Test: Anticancer human tumor 156681-154-R-J1 patient-derived melanoma cell line growth inhibition
Conditions: spheroids with HUVEC and MSC; for IC50: curve of first compound; for viability, T/C: stronger effect = lower value
From the text: Multicellular complex tumor spheroid response to DNA repair inhibitors in combination with DNA-damaging drugs
This study explores the anticancer activities of DNA-damaging drugs and inhibitors of DNA damage repair, both as single agents and in combinations. Complex tumor spheroids comprised of malignant cells, endothelial cells and mesenchymal stem cells served as an in vitro model for human solid tumors. This model system incorporates physiologically relevant features and patient-derived or established malignant cell lines with clinically relevant genetic alterations from many tumor types. Twenty-six patient-derived or established malignant cell lines were evaluated representing sarcoma, melanoma, small cell lung cancer (SCLC), non-small cell lung cancer (NSCLC), as well as bladder, ovarian and pancreatic cancers. The concentration ranges selected for each drug and investigational agent were based upon clinically achievable concentrations if the clinical Cmax of the agent was known.
Compounds. The drugs and compounds olaparib (NSC753686), talazoparib (NSC767125), berzosertib (NSC777718), elimusertib (NSC800525), nedisertib (NSC802822), VX-984 (NSC792969), AZD-1390 (NSC803789), temozolomide (NSC362856), topotecan (NSC609699), trabectedin (NSC813783), staurosporine (NSC755774), and gemcitabine (NSC613327) were obtained from the National Cancer Institute (NCI) Developmental Therapeutics Program Chemical Repository. The FDA-approved anticancer drug set is available from the Developmental Therapeutics Program at https://dtp.cancer.gov/organization/dscb/obtaining/available_plates.htm. […] The stock solutions were prepared in dimethyl sulfoxide (DMSO, Sigma-Aldrich, St. Louis, MO, cat. D2650) at 400-fold the tested concentration and stored at -70 degrees C. Prior to their use, the stock solutions were diluted in fresh medium and the final DMSO concentration in the assay was 0.25% (v/v). All drugs and investigational agents were tested over a range starting from a high concentration at or near the clinical Cmax and decreasing in half-log increments. If the clinical Cmax for an agent had not been determined, the highest concentration tested was 10 microM.
Cell Lines. The patient-derived cancer cell (PDC) lines: 156681-154-R-J1-PDC, 283228-195-R-J1-PDC, 287954-098-R-J1-PDC, 292921-168-R-J2-PDC, 349418-098-R-PDC, 425362-245-T-J1-PDC, 556581-035-R-J1-PDC, and BL0293-F563-PDC were received from the NCI Patient-Derived Models Repository (PDMR, https://pdmr.cancer.gov). The established cell lines HS-SY-2 (RRID:CVCL_8719), MPNST, and SYO-1 (RRID:CVCL_7146) were obtained from the Sloan Kettering Institute. The alveolar soft parts sarcoma cell line ASPS-1 (RRID:CVCL_S738) was established at the NCI and grown from internal seed stocks. The following established cell lines were purchased from the American Type Culture Collection (ATCC, Manassas, VA): G-401 (ATCC, cat. CRL-1441, RRID:CVCL_0270), SW982 (ATCC, cat. HTB-93, RRID:CVCL_1734), VA-ES-BJ (ATCC, cat. CRL-2138, RRID:CVCL_1785), NCI-H719 (ATCC, cat. CRL-5837, RRID:CVCL_1582), NCI-H196 (ATCC, cat. CRL-5823, RRID:CVCL_1509), NCI-H841 (ATCC, cat. CRL-5845, RRID:CVCL_1595), NCI-H1618 (ATCC, cat. CRL-5879, RRID:CVCL_1480), NCI-H1876 (ATCC, cat. CRL-5902, RRID:CVCL_1503), DMS 114 (ATCC, cat. CRL-2066; RRID:CVCL_1174), NCI-H211 (ATCC, cat. CRL-5824; RRID:CVCL_1529), and SW 1271 (ATCC, cat. CRL-2177, RRID:CVCL_1716). The small cell lung cancer cell line COR-L88 was purchased from Sigma-Aldrich (cat. 92031917-1VL, RRID:CVCL_1141). The non-small cell lung cancer cell lines NCI-H226 (RRID:CVCL_1544) and NCI-H322M (RRID:CVCL_1557) were established at the NCI and grown from internal seed stocks. Pooled donor human umbilical vein endothelial cells (HUVEC, Lonza, cat. CC-2519) and human mesenchymal stem cells (hMSC, Lonza, cat. PT-2501) were purchased from Lonza (Walkersville, MD).
Cell Culture. All cells were maintained in an incubator at 37 degrees C and 5% CO2 with 95% humidity. […]

[1] = second compound 0.003 µM, first compound 0.00949 µM
[2] = second compound 0.003 µM, first compound 0.03 µM
[3] = second compound 0.003 µM, first compound 0.0949 µM
[4] = second compound 0.003 µM, first compound 0.3 µM
[5] = second compound 0.003 µM, first compound 0.949 µM
[6] = second compound 0.003 µM, first compound 3 µM
[7] = second compound 0.00949 µM, first compound 0.00949 µM
[8] = second compound 0.00949 µM, first compound 0.03 µM
[9] = second compound 0.00949 µM, first compound 0.0949 µM
[10] = second compound 0.00949 µM, first compound 0.3 µM
[11] = second compound 0.00949 µM, first compound 0.949 µM
[12] = second compound 0.00949 µM, first compound 3 µM
[13] = second compound 0.03 µM, first compound 0.00949 µM
[14] = second compound 0.03 µM, first compound 0.03 µM
[15] = second compound 0.03 µM, first compound 0.0949 µM
[16] = second compound 0.03 µM, first compound 0.3 µM
[17] = second compound 0.03 µM, first compound 0.949 µM
[18] = second compound 0.03 µM, first compound 3 µM
[19] = second compound 0.0949 µM, first compound 0.00949 µM
[20] = second compound 0.0949 µM, first compound 0.03 µM
[21] = second compound 0.0949 µM, first compound 0.0949 µM
[22] = second compound 0.0949 µM, first compound 0.3 µM
[23] = second compound 0.0949 µM, first compound 0.949 µM
[24] = second compound 0.0949 µM, first compound 3 µM
[25] = second compound 0.3 µM, first compound 0.00949 µM
[26] = second compound 0.3 µM, first compound 0.03 µM
[27] = second compound 0.3 µM, first compound 0.0949 µM
[28] = second compound 0.3 µM, first compound 0.3 µM
[29] = second compound 0.3 µM, first compound 0.949 µM
[30] = second compound 0.3 µM, first compound 3 µM
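Also: spheroids exposed to compounds for 7 days before readout.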
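For viability, T/C in this document: percent of vehicle control viability where 100% = DMSO-treated spheroids.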

## CNCc1ccc(-c2cc(-c3nc(-c4ccc(S(=O)(=O)C(C)C)cc4)cnc3N)on2)cc1 + CC[C@@]1(O)C(=O)OCc2c1cc1n(c2=O)Cc2cc3c(CN(C)C)c(O)ccc3nc2-1
Second compound 0.003 µM
  IC50: 733 nM
Second compound 0.00949 µM
  IC50: 451 nM
Second compound 0.03 µM
  IC50: 296 nM
Second compound 0.0949 µM
  IC50: < 9.49 nM
Second compound 0.3 µM
  IC50: < 9.49 nM
[1]
  viability, T/C: 103%
[2]
  viability, T/C: 93.6%
[3]
  viability, T/C: 82.1%
[4]
  viability, T/C: 65.2%
[5]
  viability, T/C: 46.8%
[6]
  viability, T/C: 20.3%
[7]
  viability, T/C: 136%
[8]
  viability, T/C: 92.3%
[9]
  viability, T/C: 73.8%
[10]
  viability, T/C: 58.8%
[11]
  viability, T/C: 46.8%
[12]
  viability, T/C: 7.92%
[13]
  viability, T/C: 66%
[14]
  viability, T/C: 60.1%
[15]
  viability, T/C: 60.1%
[16]
  viability, T/C: 50.4%
[17]
  viability, T/C: 27.5%
[18]
  viability, T/C: 7.5%
[19]
  viability, T/C: 17.7%
[20]
  viability, T/C: 19.3%
[21]
  viability, T/C: 24.2%
[22]
  viability, T/C: 14.5%
[23]
  viability, T/C: 12.8%
[24]
  viability, T/C: 0.15%
[25]
  viability, T/C: 31.1%
[26]
  viability, T/C: 26.9%
[27]
  viability, T/C: 24.2%
[28]
  viability, T/C: 24.2%
[29]
  viability, T/C: 14.8%
[30]
  viability, T/C: 10%

## Cn1ncnc1[C@H]1c2n[nH]c(=O)c3cc(F)cc(c23)N[C@@H]1c1ccc(F)cc1 + CC[C@@]1(O)C(=O)OCc2c1cc1n(c2=O)Cc2cc3c(CN(C)C)c(O)ccc3nc2-1
Second compound 0.003 µM
  IC50: 871 nM
Second compound 0.00949 µM
  IC50: 207 nM
Second compound 0.03 µM
  IC50: < 9.49 nM
Second compound 0.0949 µM
  IC50: < 9.49 nM
Second compound 0.3 µM
  IC50: < 9.49 nM
[1]
  viability, T/C: 87.1%
[2]
  viability, T/C: 102%
[3]
  viability, T/C: 82.5%
[4]
  viability, T/C: 77.3%
[5]
  viability, T/C: 47.8%
[6]
  viability, T/C: 8.02%
[7]
  viability, T/C: 58.8%
[8]
  viability, T/C: 65.9%
[9]
  viability, T/C: 48.8%
[10]
  viability, T/C: 50%
[11]
  viability, T/C: 21.2%
[12]
  viability, T/C: 9.62%
[13]
  viability, T/C: 33.5%
[14]
  viability, T/C: 28.7%
[15]
  viability, T/C: 22.1%
[16]
  viability, T/C: 18.2%
[17]
  viability, T/C: 15.2%
[18]
  viability, T/C: 6.77%
[19]
  viability, T/C: 29.5%
[20]
  viability, T/C: 33.4%
[21]
  viability, T/C: 32.7%
[22]
  viability, T/C: 31.2%
[23]
  viability, T/C: 24.9%
[24]
  viability, T/C: 10.6%
[25]
  viability, T/C: 41.8%
[26]
  viability, T/C: 43.8%
[27]
  viability, T/C: 47.8%
[28]
  viability, T/C: 43.3%
[29]
  viability, T/C: 44%
[30]
  viability, T/C: 24.6%

## O=C(c1cc(Cc2n[nH]c(=O)c3ccccc23)ccc1F)N1CCN(C(=O)C2CC2)CC1 + CC[C@@]1(O)C(=O)OCc2c1cc1n(c2=O)Cc2cc3c(CN(C)C)c(O)ccc3nc2-1
Second compound 0.003 µM
  IC50: 21300 nM
Second compound 0.00949 µM
  IC50: 14800 nM
Second compound 0.03 µM
  IC50: < 94.9 nM
Second compound 0.0949 µM
  IC50: < 94.9 nM
Second compound 0.3 µM
  IC50: < 94.9 nM
[3]
  viability, T/C: 103%
[4]
  viability, T/C: 80.6%
[5]
  viability, T/C: 74.2%
[6]
  viability, T/C: 74.5%
Second compound 0.003 µM, first compound 9.49 µM
  viability, T/C: 63%
Second compound 0.003 µM, first compound 30 µM
  viability, T/C: 42.1%
[9]
  viability, T/C: 59.1%
[10]
  viability, T/C: 64.2%
[11]
  viability, T/C: 76.7%
[12]
  viability, T/C: 62.6%
Second compound 0.00949 µM, first compound 9.49 µM
  viability, T/C: 62%
Second compound 0.00949 µM, first compound 30 µM
  viability, T/C: 31.2%
[15]
  viability, T/C: 38.4%
[16]
  viability, T/C: 41.1%
[17]
  viability, T/C: 36.7%
[18]
  viability, T/C: 29.8%
Second compound 0.03 µM, first compound 9.49 µM
  viability, T/C: 15.3%
Second compound 0.03 µM, first compound 30 µM
  viability, T/C: 15.5%
[21]
  viability, T/C: 33.5%
[22]
  viability, T/C: 35.5%
[23]
  viability, T/C: 33%
[24]
  viability, T/C: 25.7%
Second compound 0.0949 µM, first compound 9.49 µM
  viability, T/C: 21.7%
Second compound 0.0949 µM, first compound 30 µM
  viability, T/C: 9.48%
[27]
  viability, T/C: 46%
[28]
  viability, T/C: 46.4%
[29]
  viability, T/C: 46.6%
[30]
  viability, T/C: 46.2%
Second compound 0.3 µM, first compound 9.49 µM
  viability, T/C: 42.3%
Second compound 0.3 µM, first compound 30 µM
  viability, T/C: 13.3%
